Data set [1] deals with rodent model of spinal nerve ligation. The experiment in a line: Spinal nerve ligation model, mechanical allodynia, CMX-020 and Duloxetine. It is filed as in vivo, male Sprague Dawley rats. As for the experimental part: In FIGS. 14 and 15, groups of male Sprague Dawley rats underwent a spinal nerve ligation method of the left L5 and L6 spinal nerves, inducing a model of peripheral neuropathic pain. 1 weeks later treatment with CMX-020 and Duloxetine were administered either alone or in combination at various combinational doses and efficacy was tested using mechanical allodynia pain thresholds (Von Frey Filaments, up-down method). The method of Chou-Talalay and CompuSyn computer software were used to automate analysis of dose effect data for each individual drug and their combination. […] The fold reduction of Duloxetine in combination with CMX-020 is greater than 2-fold in efficacy ranges at and greater than 20% (FIG. 15).

The subject of data set [2] is post-operative pain model. The experiment in a line: Post-operative pain model (hindpaw incision), mechanical allodynia (Von Frey filament). It is filed as in vivo, male Sprague Dawley rats. The conditions noted are these: CMX-020 intraduodenally at various doses in DHA TG, 3 hours post-surgery. As for the experimental part: In FIG. 7, groups of male Sprague Dawley rats were administered CMX-020 intraduodenally at various doses using high purity DHA in triglyceride form as the delivery vehicle. CMX-020 was measured in plasma to determine its concentrations immediately after the efficacy endpoint. Prior to administration, the rat's hindpaw was surgically incised and sutured. 3 hours post-surgery the rats were subjected to mechanical allodynia (Von Frey filament) assessment to quantify the analgesic effect of CMX-020 (% MPE=post drug threshold−baseline threshold/cutoff threshold−baseline threshold×100).

The nature of data set [3]: Plasma exposure of CMX-020 from enterically coated softgels with DHA TG vehicle. It is filed as in vivo, male cynomolgus monkey. On the procedure: In FIG. 5, groups of male cynomolgus monkey were administered CMX-020 (40 mg total dose) in enterically coated softgels at 10, 5 and 2.5% (w/w) using high purity DHA in triglyceride form as the delivery vehicle. CMX-020 was measured through time in plasma to determine its concentrations. FIG. 5 illustrates that the systemic exposure of CMX-020 in DHA TG at various concentrations provides suitable systemic exposure for more than 12 hours. In this study, the optimal concentration was 5% displaying an absolute bioavailability of 20%.

For data set [4], the system named is rodent model of Chemotherapeutic induced pain. Briefly: Chemotherapeutic (paclitaxel) induced pain model, mechanical allodynia, CMX-020 and Duloxetine. It is filed as in vivo, male Sprague Dawley rats. As for the experimental part: In FIGS. 16 and 17, groups of male Sprague Dawley rats received four daily consecutive injections of paclitaxel (1 mg/kg, ip), followed by a second series of four daily injections one week after the first injection, inducing a model of chemotherapeutic-induced peripheral neuropathy Animals were tested 2-3 days after receiving the last injection of paclitaxel with treatment of CMX-020 and Duloxetine administered either alone or in combination at various combinational doses and efficacy was tested using mechanical allodynia pain thresholds (Von Frey Filaments, up-down method). The method of Chou-Talalay and CompuSyn computer software were used to automate analysis of dose effect data for each individual drug and their combination. […] The fold reduction of Duloxetine in combination with CMX-020 is greater than 2-fold in efficacy ranges at and greater than 20% (FIG. 17).

The subject of data set [5] is rodent model of osteoarthritis. The experiment in a line: Rodent model of osteoarthritis (MIA), mechanical allodynia, CMX-020 and Tramadol. It is filed as in vivo, male Sprague Dawley rats.
A further data set is described as follows: clinical. The conditions noted are these: both, human, in vivo, po.
Data set [6] has as its system rodent model of fibromyalgia. Briefly: Rodent model of fibromyalgia (reserpine), mechanical allodynia, CMX-020 and Pregabalin. It is filed as in vivo, male Sprague Dawley rats.
Where [7] appears, read: efficacy ranges at and greater than 20%.

Data on four molecules can be found in patent publication US10966937B2, “Compositions and methods for delivery of polyunsaturated fatty acid derivatives and analogs” (Cytometix, Inc., priority 2015, dated 2021).

Usually bioavailability stands for the share of a dose that reaches the circulation, judged against a reference dose that is usually intravenous. Broadly, the Tmax is the time from dosing to the highest level. With `CCCCCC(=O)N(CC/C=C\C/C=C\C/C=C\CCCC(=O)NC1CC1)C(C)C` [CMX-020], the “analgesic effect of the combinational therapy (isobologram)” value in data set [1] (in combination with Duloxetine) was “greater than a simple additive effect”; in data set [4] (in combination with Duloxetine) it was “greater than a simple additive effect”; in data set [5] (in combination with Tramadol, 2 weeks after MIA) it was “greater than a simple additive effect”; in data set [6] (co-administered with Pregabalin) it was “greater than a simple additive effect”. In addition, the “relation of systemic exposure to analgesic efficacy (% MPE)” value in data set [2] was “positively correlates”. Moreover, in data set [3] (CMX-020 40 mg total dose at 10, 5 and 2.5% (w/w) in DHA TG, monkey), the “duration of suitable systemic exposure” value was “more than 12 hours”. In addition, the bioavailability in data set [3] (male, cynomolgus monkey, plasma, oral, CMX-020 40 mg total dose, 5% (w/w) in DHA TG, read-out: absolute bioavailability) worked out at 20%. For the same molecule, in “clinical”, the Tmax fell in the range of 3.5 to 5.5 h.

In the case of `CNCC[C@H](Oc1cccc2ccccc12)c1cccs1` [Duloxetine, reference compound], the “fold reduction of Duloxetine in combination with CMX-020” value in data set [1] (setting [7]) and in data set [4] (setting [7]) was “greater than 2 fold” in each case.

Turning to `CC(C)C[C@H](CN)CC(=O)O` [Pregabalin, reference compound], the “fold reduction of Pregabalin in combination with CMX-020” value in data set [6] (efficacy ranges at and greater than 35%) was “greater than 2 fold”.

Regarding `COc1cccc(C2(O)CCCCC2CN(C)C)c1` (stereo not drawn) [Tramadol, reference compound], the “fold reduction of Tramadol in combination with CMX-020” value in data set [5] (efficacy ranges at and greater than 10%) was “greater than 2 fold”.
